In patent US9062088B2, “CDK-inhibiting pyrrolopyrimidine carboxamide derivative or pharmaceutically acceptable salt thereof, and pharmaceutical composition containing the same as active ingredient for preventing or treating hepatocellular carcinoma” (SNU R&DB Foundation, priority 2010, dated 2015):
Values joined by “and” are separate entries in the source; they are usually repeats but may differ in a detail not shown here. Equal entries are not always repeated.

Legend:
Cdk1/cyclin B = biological target: T1, Cdk1/cyclin B (Homo sapiens, UniProt P06493); experiment: In vitro kinase activity assay, histone H1 phosphorylation by Cdk1/cyclin B; type: biochemical; details: for Phosphorylation (%) Cdk1: 0 nM = 100%
T1 construct: purchased Upstate
Protocol: To kinase assay buffer (50 mM Tris (pH 7.4), 10 mM magnesium chloride, 1 mM EGTA, 40 mM β-glycerophosphate, 0.1 mM Na3VO4, 1 mM DTT, 0.1 μg/mL leupeptin, 0.1 μg/mL pepstatin A, 0.1 μg/mL antipain and 1 mM phenylmethylsulfonyl fluoride) were added 5 μg histone H1 as a substrate, 20 ng Cdk1/cyclin B or 40 ng Cdk2/cyclin A recombinant protein (Upstate, NY, USA) as an enzyme, 2.5 μCi [γ-32P]ATP, and 100 μM MgAc/ATP. The total reaction volume was adjusted to 50 μl. The compound of Example 2 was added to the reaction mixture, followed by inducing kinase reaction at 30° C. for 20 minutes. Upon completion of the reaction, the reaction mixture proceeded to electrophoresis on 12% SDS-polyacrylamide gel. Phosphorylation levels of Cdk1 and Cdk2 over the concentrations of the compound of Example 2 were confirmed by autoradiography, and the results are shown in FIG. 1, FIG. 2, and Table 1.
The intensity of bands was analyzed by densitometry (GS-800, Bio-Rad).

[1] = tested on: Mcl-1, survivin, XIAP mRNA; experiment: RT-PCR of Mcl-1, survivin, XIAP mRNA in SNU-354 cells; type: cell-based, human; details: FIG. 14
Protocol: Total RNA was extracted from SNU-354 cells treated with the compound of Example 2 according to the conventional method. For reverse transcription, 5 μg of the extracted RNA and M-MLV reverse transcriptase (Promega Corporation, WI, USA) were used. Reverse Transcription was induced at 37° C. for 1 hour, followed by further reaction at 95° C. for 5 minutes. For PCR, 5 μl of cDNA obtained from the reverse transcription was used as a template and Taq DNA polymerase was used. Total reaction volume was 50 μl. PCR was performed as follows; predenaturation at 95° C. for 5 minutes, denaturation at 95° C. for 1 minute, annealing at 56° C. for 1 minute, polymerization at 72° C. for 1 minute, 30 cycles from denaturation to polymerization, and final extension at 72° C. for 10 minutes. After PCR, the PCR products were analyzed by electrophoresis on 1% agarose gel. The forward primer for Mcl-1 was 5′-CGGTAATCGGACTCAACCTC-3′ (SEQ ID NO: 1) and the reverse primer was 5′-CCT CCT TCT CCG TAG CCA A-3′ (SEQ ID NO: 2). The forward primer for XIAP was 5′-AGTGGTAGTCCTGTTTCAGCATCA-3′ (SEQ ID NO: 3) and the reverse primer was 5′-CCG CAC GGT ATC TCC TTC A-3′ (SEQ ID NO: 4). The forward primer for survivin was 5′-TGC CTG GCA GCC CTT TC-3′ (SEQ ID NO: 5) and the reverse primer was 5′-CCTCCAAGAAGGGCCAGTTC-3′ (SEQ ID NO. 6). […]

SNU-354 cells = experiment: Flow cytometry, sub G1 ratio change (Experimental Example 3); type: cell-based, human; details: 10 μM, 24 hours, vehicle = 1.0
Protocol: SNU-354 cells were seeded in a 90 mm dish, to which vehicle and the compounds of Examples 2˜6 were treated at the concentration of 10 μM each for 24 hours. The cells were collected and washed with cold PBS, followed by reaction in 500 μl of cold 70% ethanol at 4° C. for overnight to fix the cells. The cells were washed with 500 μl of PBS three times, followed by reaction with 500 μl of PBS containing 50 μg/mL propidium iodide (P1) and 50 μl of 1 mg/mL RNAse A at room temperature for 30 minutes in the darkness. Fluorescence of the P1 stained cell was measured by using FACS caliber flow cytometer and cell quest program (Becton Dickinson Immunocytometry Systems, CA, USA). Sub G1 ratio changes of SNU-354 cells induced by the compounds were measured by FACS analysis.

[2] = tested on: SNU-354 xenografted tumor; experiment: TUNEL assay and cleaved caspase-3 immunohistochemistry of xenografted tumor; type: in vivo, nude mice; details: 4 and 20 mg/kg vs control; FIG. 23-A
Protocol: All the xenografted tumors and liver tissues extracted above were fixed in 36% formaldehyde solution (Junsei Chemical Co., Ltd, Tokyo, JAPAN), followed by paraffin embedding. The embedded tissues were cut into 5 μm sections. H&E staining and TUNEL assay were performed for examining apoptosis with those sections. The expression of cleaved caspase-3 in the tissue section was measured by using cleaved caspase-3 monoclonal antibody (Cell Signaling, MA, USA). ABC peroxidase (Dako Cytomation California, Inc., CA, USA) labeling was performed for immunological sensitization and the results are shown in FIG. 23. As shown in FIG. 23-A, TUNEL positive spots and caspase-3 positive spots were observed more in the group treated with the compound of Example 2 than in the control. […] As shown in FIG. 23-B, it was investigated whether or not the compound of Example 2 could affect normal liver tissues.

T1 sequence (P06493 whole entry): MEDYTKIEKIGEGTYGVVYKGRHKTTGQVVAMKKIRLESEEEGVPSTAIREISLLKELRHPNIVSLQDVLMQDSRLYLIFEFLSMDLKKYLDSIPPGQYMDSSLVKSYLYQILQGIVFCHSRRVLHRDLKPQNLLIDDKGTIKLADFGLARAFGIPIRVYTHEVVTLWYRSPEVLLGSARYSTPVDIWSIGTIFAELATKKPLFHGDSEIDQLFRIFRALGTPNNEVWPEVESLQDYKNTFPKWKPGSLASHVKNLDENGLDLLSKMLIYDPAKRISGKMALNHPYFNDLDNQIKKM
T1 sequence (P14635 whole entry partner): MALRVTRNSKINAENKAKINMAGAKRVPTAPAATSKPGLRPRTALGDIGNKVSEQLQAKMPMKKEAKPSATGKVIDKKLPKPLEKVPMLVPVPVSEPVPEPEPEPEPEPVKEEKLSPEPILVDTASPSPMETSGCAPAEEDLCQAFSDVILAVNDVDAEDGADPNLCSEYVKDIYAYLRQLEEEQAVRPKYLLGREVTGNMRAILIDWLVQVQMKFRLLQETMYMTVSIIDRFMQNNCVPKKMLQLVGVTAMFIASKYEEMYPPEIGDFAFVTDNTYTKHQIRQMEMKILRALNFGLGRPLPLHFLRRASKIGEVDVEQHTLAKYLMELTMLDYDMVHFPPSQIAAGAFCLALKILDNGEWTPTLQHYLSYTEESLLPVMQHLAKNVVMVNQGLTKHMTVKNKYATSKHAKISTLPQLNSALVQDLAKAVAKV

In the case of `CC(C)C(=O)OC[C@@H]1O[C@H](n2cnc(N)c3c(C(N)=O)c(Br)nc2-3)[C@H](O)[C@H]1O` [Example 2, ((2S,3R,4R,5S)-5-(4-amino-6-bromo-5-carbamoyl-1H-pyrrolo[2,3-d]pyrimidin-1-yl)-3,4-dihydroxy-tetrahydrofuran-2-yl)methyl isobutyrate], the “Phosphorylation (%) Cdk1” value (Cdk1/cyclin B; 10 nM) is reported as 100% and 99.4%, the “Phosphorylation (%) Cdk1” value (Cdk1/cyclin B; 20 nM) is reported as 92.2% and the “Phosphorylation (%) Cdk1” value (Cdk1/cyclin B; 40 nM) is reported as 74.1%. For the same compound, the “Phosphorylation (%) Cdk1” value (Cdk1/cyclin B; 50 nM) was 50%, the “Phosphorylation (%) Cdk1” value (Cdk1/cyclin B; 60 nM) was 41.6% and the “Phosphorylation (%) Cdk1” value (Cdk1/cyclin B; 80 nM) was 15.3%. For the same compound, the “Phosphorylation (%) Cdk1” value (Cdk1/cyclin B; 100 nM) was 4.3%, the IC50 (Cdk1/cyclin B; histone H1 phosphorylation) was 0.05 µM and the “Mcl-1, survivin and XIAP mRNA” value [1] was “decrease of mRNA”. For the same compound, the “sub G1 ratio change” value (SNU-354 cells) was 5.9 and the “TUNEL positive spots and caspase-3 positive spots in xenografted tumor” value [2] was “observed more”.
